Laboratory results from publication PMC11127046, “Three-component systems represent a common pathway for extracytoplasmic addition of pentofuranose sugars into bacterial glycans” (Proceedings of the National Academy of Sciences of the …, 2024).

Molecular target: T1, ORF15 (polyprenyl phosphoribofuranose synthase, PPPRS) (Citrobacter youngae, UniProt A0A2Z4BV67)
T1 construct: gene ubiA; full-length two-domain integral membrane protein (N-terminal PRP/HAD, C-terminal UbiA-type PPPRS); plasmid-expressed, membranes used as enzyme
T1 sequence (A0A2Z4BV67 1-483): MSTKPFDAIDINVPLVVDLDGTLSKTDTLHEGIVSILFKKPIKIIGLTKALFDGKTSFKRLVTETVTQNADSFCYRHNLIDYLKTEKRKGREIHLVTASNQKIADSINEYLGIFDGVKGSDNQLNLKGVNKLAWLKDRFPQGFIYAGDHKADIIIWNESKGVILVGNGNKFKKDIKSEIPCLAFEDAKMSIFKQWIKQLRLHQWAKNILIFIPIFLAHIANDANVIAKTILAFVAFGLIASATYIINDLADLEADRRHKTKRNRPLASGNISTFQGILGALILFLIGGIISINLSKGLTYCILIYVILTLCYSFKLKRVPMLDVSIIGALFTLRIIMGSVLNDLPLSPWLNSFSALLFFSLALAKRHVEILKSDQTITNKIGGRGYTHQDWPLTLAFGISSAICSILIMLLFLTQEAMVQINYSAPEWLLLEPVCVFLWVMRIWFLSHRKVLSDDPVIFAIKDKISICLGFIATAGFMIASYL
Assay: TLC, MS and NMR of product formed by membranes
Type: biochemical
Conditions: […] °C, […] h, expressed membranes

Structure (SMILES)	TLC, MS and NMR of product formed by membranes ([…] acceptor, […] PRPP, […] MgCl2, […] HEPES pH […])	TLC, MS and NMR of product formed by membranes ([…] donor, […] farnesylP acceptor, […] MgCl2, pH […])
CC(C)=CCC/C(C)=C/CC/C(C)=C/COP(=O)(O)O [compound 1, farnesyl-phosphate]	revealing production of a slower migrating species that was dependent on the presence of PRPP	
O=P(O)(O)OC[C@H]1O[C@H](OP(=O)(O)OP(=O)(O)O)[C@H](O)[C@@H]1O [phosphoribosylpyrophosphate]		membranes, PRPP donor, and farnesylP acceptor were analyzed by thin layer chromatography (TLC)
